From patent publication US10941114B2, “Small molecule lipid II inhibitors” (University Of Maryland, Baltimore, priority 2015, dated 2021)
Where a name gives a salt, the structure may show the parent alone. Read-outs that look alike come from different tables or passages of the source. Values belong to the compound of their own block, whether it stands above or below them.

Experiments:
[1] = Surface Plasmon Resonance determination of Lipid II binding; conditions: SPR; for Lipid II binding affinity: FIG. 16
Description: Short-chain water-soluble LII containing a lipid tail of three isoprene units (3-LII) was generated and purified essentially according to methods known in the art. See Breukink et al., Lipid II is an intrinsic component of the pore induced by nisin in bacterial membranes. J. Biol. Chem. 278(22):19898-19903, 2003, the contents of which are hereby incorporated by reference. Typically, M. flavus vesicles (120 μmol lipid-Pi) were incubated together with 500 μmol UDP-GlcNAc, 500 μmol UDP-MurNAC-pentapeptide and 400 μmol farnesyl phosphate in 100 mM Tris-HCl pH 8.0, 5 mM MgCl2. The incubation period was approximately two hours at room temperature for 3-LII (3-P). The synthesis of 3-Lipid II was followed by RP-8 reversed phase TLC (Merck™) developed with 75% methanol. For purification, the membranes were removed by centrifugation at 40,000×g; the supernatant was collected and loaded on a C18 HPLC column and eluted with a linear gradient from 50 mM ammonium bicarbonate to 100% methanol in 30 minutes. Farnesyl-Lipid II (3-Lipid II) eluted at approximately 60% methanol. Its identity was confirmed by mass spectroscopy.
Surface Plasmon Resonance binding experiments were carried out on a BIAcore T100 system (BIAcore™ Inc., Piscataway, N.Y.) at 25° C. The assay buffer was 10 mM HEPES, 150 mM NaCl, 0.05% surfactant P20, pH 7.4 (+3 mM EDTA) supplemented with 10% DMSO. 3-Lipid II (50 RUs) was immobilized on CMS sensor chips using the amine-coupling chemistry recommended by the manufacturer. For initial determination of binding, compounds were introduced into the flow-cells (30.mu·1/min) in the running buffer at 10 μM. Resonance signals were corrected for nonspecific binding by subtracting the background of the control flow-cell. Binding to immobilized 3-LII on the chip surface was determined and scored “yes” in Table 5 when more than 20 Resonance Units or RUs were detected. Detection of less than 20 RUs was scored as “no”, meaning no significant binding to LII. After each analysis, the sensor chip surfaces were regenerated with 50 mM NaOH for 30 seconds at a flow rate 100 μL/min, and equilibrated with the buffer prior to next injection. For binding kinetics studies, binding isotherms were analyzed with manufacturer-supplied software for BIAcore™ T100.

Staphylococcus aureus = experiment: Antibacterial activity assay (MIC, broth dilution); format: cell-based; set-up: S. aureus Killing / Bacterial Killing S. aureus: unit not given here; conditions: for Bacterial Killing S. aureus: determined as in Example 1E (MIC); for MIC: Staphylococcus aureus, Table 16, CLSI M07-A10 dilution method, read-out: MIC S. aureus; for MIC SA: S. aureus USA300 (MRSA), average of two replicates
Enterococcus faecium = experiment: Antibacterial activity assay (MIC, broth dilution); format: cell-based; set-up: Bacterial Killing E. faecium: unit: ug/mL; conditions: for Bacterial Killing E. faecium: determined as in Example 1E (MIC); for MIC: Enterococcus faecium, Table 16, CLSI M07-A10 dilution method, read-out: MIC E. faecium; for MIC EF: average of two replicates
Description: (§1) Determination of the Minimal Inhibitory Concentrations (MIC) by dilution was carried out by broth dilution according to CLSI standards. See CLSI, Methods for Dilution Antimicrobial Susceptibility Tests for Bacteria That Grow Aerobically; Approved Standard—Eighth Edition. 2009, the contents of which are hereby incorporated by reference. Briefly, the minimum inhibitory concentration MIC, is the lowest concentration of a compound that prevents visible growth of a bacterium, in other words at which it has bacteriostatic activity.
For these tests, cation-adjusted Mueller Hinton broth, containing 10% brain-heart infusion (BHI) was used. Concentrations (MIC) are given in μg/mL. The compound was […].
(§2) Compounds were tested for MIC by methods known in the art and described in CLSI, Methods for Dilution Antimicrobial Susceptibility Tests for Bacteria That Grow Aerobically; Approved Standard—Tenth Edition. CLSI document M07-A10. Wayne, Pa.: Clinical and Laboratory Standards Institute, 2015, which is hereby incorporated by reference for these methods.
(§3) Selected compounds also were tested by broth microdilution methods known in the art and described in CLSI, Methods for Dilution Antimicrobial Susceptibility Tests for Bacteria That Grow Aerobically; Approved Standard—Tenth Edition. CLSI document M07-A10. Wayne, Pa.: Clinical and Laboratory Standards Institute, 2015, which is hereby incorporated by reference. Structures of selected compounds in the tables are listed below.

Escherichia coli = experiment: Antibacterial activity assay (MIC, broth dilution); format: cell-based; conditions: determined as in Example 1E (MIC)
Acinetobacter baumannii = experiment: Antibacterial activity assay (MIC, broth dilution); format: cell-based; conditions: for MIC: Acinetobacter baumannii, Table 16, CLSI M07-A10 dilution method, read-out: MIC A. baumannii; for MIC AB: A. baumannii 2-2-2 (colistin-resistant clinical isolate), average of two replicates
Description: as §1, §2, §3

HeLa cells = experiment: Cytotoxicity testing (CC50, MTS assay); conditions: HeLa cells
[2] = mouse, in vivo, iv, 10 mg/kg
[3] = Pharmacokinetic study in mice (plasma concentration by LC/MS/MS); conditions: single dose of 10 mg/kg by intravenous injection
[4] = text: E. faecium EF1509 (VRE), footnote: Enterococcus faecalis ATCC 1509

MIC (Acinetobacter baumannii): 16 µg/mL
Compound: Cc1ccc(-c2cc(-c3ccc(Br)cc3)cc(/C=C/c3ccc(N(C)CCO)cc3)[n+]2C)cc1C.[I-] [Compound 9x, (E)-4-(4-bromophenyl)-2-(3,4-dimethylphenyl)-6-(4-((2-hydroxyethyl)(methyl)-amino)styryl)-1-methylpyridin-1-ium iodide]
MIC (Staphylococcus aureus): 1 µg/mL
MIC (Enterococcus faecium): 8 µg/mL

MIC (Acinetobacter baumannii): 16 µg/mL
Compound: COc1cc(-c2cc(/C=C/c3ccc(N(C)C)cc3)[n+](C)c(-c3ccc(Br)cc3)c2)cc(OC)c1Br.[I-] [Compound 9y1, (E)-4-(4-bromo-3,5-dimethoxyphenyl)-2-(4-bromophenyl)-6-(4-(dimethyl-amino)styryl)-1-methylpyridin-1-ium iodide]
MIC (Staphylococcus aureus): 2 µg/mL
MIC (Enterococcus faecium): 8 µg/mL

MIC (Acinetobacter baumannii): 8 µg/mL
Compound: CCN(CC)c1ccc(/C=C/c2cc(-c3cc(OC)c(Br)c(OC)c3)cc(-c3ccc(Br)cc3)[n+]2C)cc1.[I-] [Compound 9y2, (E)-4-(4-bromo-3,5-dimethoxyphenyl)-2-(4-bromophenyl)-6-(4-(diethylamino)-styryl)-1-methylpyridin-1-ium iodide]
MIC (Staphylococcus aureus): 1 µg/mL
MIC (Enterococcus faecium): 4 µg/mL

MIC (Acinetobacter baumannii): 8 µg/mL
Compound: COc1cc(-c2cc(/C=C/c3ccc(N(C)CCO)cc3)[n+](C)c(-c3ccc(Br)cc3)c2)cc(OC)c1Br.[I-] [Compound 9y3, (E)-4-(4-bromo-3,5-dimethoxyphenyl)-2-(4-bromophenyl)-6-(4-((2-hydroxy-ethyl)(methyl)amino)styryl)-1-methylpyridin-1-ium iodide]
MIC (Staphylococcus aureus): 4 µg/mL
MIC (Enterococcus faecium): 8 µg/mL

MIC (Acinetobacter baumannii): 8 µg/mL
Compound: COc1cc(-c2cc(/C=C/c3ccc(N(C)CCC#N)cc3)[n+](C)c(-c3ccc(Br)cc3)c2)cc(OC)c1Br.[I-] [Compound 9y4, (E)-4-(4-bromo-3,5-dimethoxyphenyl)-2-(4-bromophenyl)-6-(4-((2-cyano-ethyl)(methyl)amino)styryl)-1-methylpyridin-1-ium iodide]
MIC (Staphylococcus aureus): 4 µg/mL
MIC (Enterococcus faecium): 8 µg/mL

MIC (Acinetobacter baumannii): 32 µg/mL
Compound: CN(C)c1ccc(/C=C/c2cc(-c3ccc(Br)cc3Cl)cc(-c3ccc(Br)cc3)[n+]2C)cc1.[I-] [Compound 9z1, (E)-4-(4-bromo-2-chlorophenyl)-2-(4-bromophenyl)-6-(4-(dimethylamino)-styryl)-1-methylpyridin-1-ium iodide]
MIC (Staphylococcus aureus): 4 µg/mL
MIC (Enterococcus faecium): 8 µg/mL

MIC (Acinetobacter baumannii): 2 µg/mL
Compound: CCN(CC)c1ccc(/C=C/c2cc(-c3ccc(Br)cc3Cl)cc(-c3ccc(Br)cc3)[n+]2C)cc1.[I-] [Compound 9z2, (E)-4-(4-bromo-2-chlorophenyl)-2-(4-bromophenyl)-6-(4-(diethylamino)-styryl)-1-methylpyridin-1-ium iodide]
MIC (Staphylococcus aureus): 0.5 µg/mL
MIC (Enterococcus faecium): 1 µg/mL

MIC (Acinetobacter baumannii): 16 µg/mL
Compound: CN(CCO)c1ccc(/C=C/c2cc(-c3ccc(Br)cc3Cl)cc(-c3ccc(Br)cc3)[n+]2C)cc1.[I-] [Compound 9z3, (E)-4-(4-bromo-2-chlorophenyl)-2-(4-bromophenyl)-6-(4-((2-hydroxyethyl)-(methyl)amino)styryl)-1-methylpyridin-1-ium iodide]
MIC (Staphylococcus aureus): 2 µg/mL
MIC (Enterococcus faecium): 4 µg/mL

MIC (Acinetobacter baumannii): 32 µg/mL
Compound: CN(CCC#N)c1ccc(/C=C/c2cc(-c3ccc(Br)cc3Cl)cc(-c3ccc(Br)cc3)[n+]2C)cc1.[I-] [Compound 9z4, (E)-4-(4-bromo-2-chlorophenyl)-2-(4-bromophenyl)-6-(4-((2-cyanoethyl)-(methyl)amino)styryl)-1-methylpyridin-1-ium iodide]
MIC (Staphylococcus aureus): 2 µg/mL
MIC (Enterococcus faecium): 4 µg/mL

MIC AB (Acinetobacter baumannii): 8 µg/mL
Compound: CN(C)c1ccc(/C=C/c2cc(-c3ccc(Br)cc3)cc(-c3ccc(Br)cc3)[n+]2C)cc1.[I-] [EL-2]
MIC SA (Staphylococcus aureus): 1 µg/mL
MIC EF (Enterococcus faecium; E. faecium EF1509 (VRE)): 1 µg/mL
MIC EF (Enterococcus faecium; [4]): 1 µg/mL
CC50 (HeLa cells; exposure 24 hour): 5 µg/mL
CC50 (HeLa cells; exposure 24 hours): 5 µg/mL

MIC AB (Acinetobacter baumannii): 16 µg/mL
Compound: CC(C)[n+]1c(/C=C/c2ccc(N(C)C)cc2)cc(-c2ccc(Br)cc2)cc1-c1ccc(Br)cc1.[I-] [EL-3]
MIC SA (Staphylococcus aureus): 2 µg/mL
MIC EF (Enterococcus faecium; E. faecium EF1509 (VRE)): 2 µg/mL
CC50 (HeLa cells; exposure 24 hour): 9 µg/mL

Second part, the compound before the results:

Compound: CN(C)c1ccc(/C=C/c2cc(-c3ccc(Cl)cc3)cc(-c3ccc(Cl)cc3)[o+]2)cc1 [(E)-2,4-bis(4-chlorophenyl)-6-(4-(dimethylamino)styryl)pyrylium boron tetrafluoride salt]
Lipid II Binding ([1]; immobilized 3-LII, compounds at 10 μM): yes (scored “yes” in Table 5 when more than 20 Resonance Units or RUs were detected)
S. aureus Killing (Staphylococcus aureus; anti-bacterial activity (MIC), strain not stated): 32

Compound: CN1/C(=C/C=C/c2cc(-c3ccc(Cl)cc3)cc(-c3ccc(Cl)cc3)[o+]2)C(C)(C)c2ccccc21 [Compound 7jc42-1]
Bacterial Killing S. aureus (Staphylococcus aureus): 8
Bacterial Killing E. faecium (Enterococcus faecium): 32
Bacterial Killing E. coli (Escherichia coli): >64

Compound: CN1/C(=C/C=C/c2cc(-c3ccc(Br)cc3)cc(-c3ccc(Br)cc3)[o+]2)C(C)(C)c2ccccc21 [Compound 7jc42-2]
Bacterial Killing S. aureus (Staphylococcus aureus): 32
Bacterial Killing E. faecium (Enterococcus faecium): 32
Bacterial Killing E. coli (Escherichia coli): >64

Compound: CN(C)c1ccc(/C=C/c2cc(-c3cccc(F)c3)cc(-c3cccc(F)c3)[o+]2)cc1 [Compound 7jc46-1]
Bacterial Killing S. aureus (Staphylococcus aureus): 1
Bacterial Killing E. faecium (Enterococcus faecium): 2
Bacterial Killing E. coli (Escherichia coli): >64

Compound: CN(C)c1ccc(/C=C/C=C/c2cc(-c3ccc(F)cc3)cc(-c3ccc(F)cc3)[o+]2)cc1 [Compound 7jc47-2]
Bacterial Killing S. aureus (Staphylococcus aureus): 1
Bacterial Killing E. faecium (Enterococcus faecium): 1
Bacterial Killing E. coli (Escherichia coli): >64

Compound: CN(C)c1ccc(/C=C/c2cc(-c3ccc(Br)cc3)cc(-c3ccc(Br)cc3)[n+]2C2CCCCC2)cc1.[I-] [EL-5]
Lipid II binding affinity [1]: below micromolar
MIC SA (Staphylococcus aureus): 1 µg/mL
MIC EF (Enterococcus faecium; E. faecium EF1509 (VRE)): 0.25 µg/mL
MIC AB (Acinetobacter baumannii): 0.5 µg/mL
AUCInf [2]: 4125 ± 780 ng·h/mL
Cl—obs [2]: 41.29 ± 7 mL/min/kg
MRT [2]: 18.8 ± 1.62 h
T1/2 [2]: 23.8 ± 0.84 h
CC50 (HeLa cells; exposure 24 hour): 4 µg/mL
AUCextrap [3]: 27.2 ± 1.6%
AUClast/D [3]: 300 ± 58 ng·h/mL

Compound: Cc1ccc(-c2cc(-c3ccc(Br)cc3)cc(/C=C/c3ccc(N(C)C)cc3)[n+]2C)cc1.[I-] [EL-8]
Lipid II binding affinity [1]: below micromolar
MIC SA (Staphylococcus aureus): 0.5 µg/mL
MIC EF (Enterococcus faecium; [4]): 4 µg/mL
MIC AB (Acinetobacter baumannii): 4 µg/mL
AUCInf [2]: 764 ± 187 ng·h/mL
AUClast/D [2]: 729 ± 179 mg·h/mL
MRT [2]: 1.74 ± 0.49 h
T1/2 [2]: 9.4 ± 1.01 h
CC50 (HeLa cells; exposure 24 hours): 12 µg/mL
AUCextrap [3]: 4.63 ± 0.51%
AUClast/D [3]: 72.9 ± 17.9 ng·h/mL
